From PMC12150326 (The Journal of Organic Chemistry, 2025)

Legend:
Type in all cases: cell-based, human
MDA-MB-468 = tested on: MDA-MB-468
Summary of the method: (§1)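 Concentrations tested in the NCI-60 panel were 0.01, 0.1, 1, 10 and 100 μM. The endpoint taken forward was TGI, whose pattern across lines was run through COMPARE alongside earlier tubulin inhibitors.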

UO-31 = tested on: UO-31
Summary of the method: as §1

HL-60(TB) = tested on: HL-60(TB)
Summary of the method: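 Screening via NCI-60, five log concentrations from 0.01 to 100 μM; TGI compared by COMPARE with reference tubulin agents.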

NCI-H522 = tested on: NCI-H522
Summary of the method: as §1

T-47D = tested on: T-47D
Summary of the method: as §1

MOLT-4 = tested on: MOLT-4
Summary of the method: as §1

ACHN = tested on: ACHN
Summary of the method: (§2)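 Tested in five doses (top 100 μM, lowest 0.01 μM) within the 60 Cell Screen; COMPARE used TGI responses relative to known tubulin inhibitors.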

HCT-116 = tested on: HCT-116
Summary of the method: as §1

UACC-257 = tested on: UACC-257
Summary of the method: as §1

SK-MEL-5 = tested on: SK-MEL-5
Summary of the method: as §1

SF-295 = tested on: SF-295
Summary of the method: as §1

SK-MEL-2 = tested on: SK-MEL-2
Summary of the method: as §1

NCI/ADR-RES = tested on: NCI/ADR-RES
Summary of the method: as §1

NCI 60 cell lines = tested on: NCI 60 cell lines
Summary of the method: as §1

OVCAR-8 = tested on: OVCAR-8
Summary of the method: as §1

RPMI-8226 = tested on: RPMI-8226
Summary of the method: as §1

MCF7 = tested on: MCF7
Summary of the method: as §1

MDA-MB-231/ATCC = tested on: MDA-MB-231/ATCC
Summary of the method: as §1

HT29 = tested on: HT29
Summary of the method: as §1

U251 = tested on: U251
Summary of the method: as §1

K-562 = tested on: K-562
Summary of the method: as §1

TK-10 = tested on: TK-10
Summary of the method: as §2

SK-OV-3 = tested on: SK-OV-3
Summary of the method: as §1

PC-3 = tested on: PC-3
Summary of the method: as §2

CCRF-CEM = tested on: CCRF-CEM
Summary of the method: as §2

RXF 393 = tested on: RXF 393
Summary of the method: as §1

COc1cc(C)c(-c2ccc(OC)c(=O)cc2C)c(OC)c1OC (single isomer, unassigned) [(aS)-6]
Log10GI50 (MDA-MB-468): -4.20 Molar
Log10LC50 (MDA-MB-468): > -4.00 Molar
Log10TGI (MDA-MB-468): > -4.00 Molar
Log10GI50 (UO-31): > -4.00 Molar
Log10LC50 (UO-31): > -4.00 Molar
Log10TGI (UO-31): > -4.00 Molar
Log10GI50 (HL-60(TB)): > -4.00 Molar
Log10LC50 (HL-60(TB)): > -4.00 Molar
Log10TGI (HL-60(TB)): > -4.00 Molar
Log10GI50 (NCI-H522): > -4.00 Molar
Log10LC50 (NCI-H522): > -4.00 Molar
Log10TGI (NCI-H522): > -4.00 Molar
Log10GI50 (T-47D): > -4.00 Molar
Log10LC50 (T-47D): > -4.00 Molar
Log10TGI (T-47D): > -4.00 Molar
Log10GI50 (MOLT-4): > -4.00 Molar
Log10LC50 (MOLT-4): > -4.00 Molar
Log10TGI (MOLT-4): > -4.00 Molar
Log10GI50 (ACHN): > -4.00 Molar
Log10LC50 (ACHN): > -4.00 Molar
Log10TGI (ACHN): > -4.00 Molar
Log10GI50 (HCT-116): > -4.00 Molar
Log10LC50 (HCT-116): > -4.00 Molar
Log10TGI (HCT-116): > -4.00 Molar
Log10GI50 (UACC-257): > -4.00 Molar
Log10LC50 (UACC-257): > -4.00 Molar
Log10TGI (UACC-257): > -4.00 Molar
Log10GI50 (SK-MEL-5): > -4.00 Molar
Log10LC50 (SK-MEL-5): > -4.00 Molar
Log10TGI (SK-MEL-5): > -4.00 Molar
Log10GI50 (SF-295): > -4.00 Molar
Log10LC50 (SF-295): > -4.00 Molar
Log10TGI (SF-295): > -4.00 Molar
Log10GI50 (SK-MEL-2): > -4.00 Molar
Log10LC50 (SK-MEL-2): > -4.00 Molar
Log10TGI (SK-MEL-2): > -4.00 Molar
Log10GI50 (NCI/ADR-RES): > -4.00 Molar
Log10LC50 (NCI/ADR-RES): > -4.00 Molar
Log10TGI (NCI/ADR-RES): > -4.00 Molar
cytotoxicity at the highest concentration tested (NCI 60 cell lines; 100 μM): not cytotoxic
Log10 Range at TGI (NCI 60 cell lines; NCI-60 cell line selectivity, listed as (aS)-DM-MTC (6)): 0
Mean TGI (NCI 60 cell lines; NCI-60 mean total growth inhibition, listed as (aS)-DM-MTC (6)): > 100 µM
GI50 (NCI 60 cell lines; NCI-60 mean, listed as (aS)-DM-MTC (6)): > 100 µM
Delta Log10GI50 (NCI 60 cell lines; mean graph): 0.63
Delta Log10LC50 (NCI 60 cell lines; mean graph): 0
Delta Log10TGI (NCI 60 cell lines; mean graph): 0
Range Log10GI50 (NCI 60 cell lines; mean graph): 0.65
Range Log10LC50 (NCI 60 cell lines; mean graph): 0.0
Range Log10TGI (NCI 60 cell lines; mean graph): 0.0
_MID Log10GI50 (NCI 60 cell lines; mean graph midpoint): -4.02 Molar
_MID Log10LC50 (NCI 60 cell lines; mean graph midpoint): -4.0 Molar
_MID Log10TGI (NCI 60 cell lines; mean graph midpoint): -4.0 Molar
Log10GI50 (OVCAR-8): > -4.00 Molar
Log10LC50 (OVCAR-8): > -4.00 Molar
Log10TGI (OVCAR-8): > -4.00 Molar
Log10GI50 (RPMI-8226): > -4.00 Molar
Log10LC50 (RPMI-8226): > -4.00 Molar
Log10TGI (RPMI-8226): > -4.00 Molar
Log10GI50 (MCF7): > -4.00 Molar
Log10LC50 (MCF7): > -4.00 Molar
Log10TGI (MCF7): > -4.00 Molar
Log10GI50 (MDA-MB-231/ATCC): > -4.00 Molar
Log10LC50 (MDA-MB-231/ATCC): > -4.00 Molar
Log10TGI (MDA-MB-231/ATCC): > -4.00 Molar
Log10GI50 (HT29): > -4.00 Molar
Log10LC50 (HT29): > -4.00 Molar
Log10TGI (HT29): > -4.00 Molar
Log10GI50 (U251): > -4.00 Molar
Log10LC50 (U251): > -4.00 Molar
Log10TGI (U251): > -4.00 Molar
Log10GI50 (K-562): -4.38 Molar
Log10LC50 (K-562): > -4.00 Molar
Log10TGI (K-562): > -4.00 Molar
Log10GI50 (TK-10): > -4.00 Molar
Log10LC50 (TK-10): > -4.00 Molar
Log10TGI (TK-10): > -4.00 Molar
Log10GI50 (SK-OV-3): > -4.00 Molar
Log10LC50 (SK-OV-3): > -4.00 Molar
Log10TGI (SK-OV-3): > -4.00 Molar
Log10GI50 (PC-3): > -4.00 Molar
Log10LC50 (PC-3): > -4.00 Molar
Log10TGI (PC-3): > -4.00 Molar
Log10GI50 (CCRF-CEM): > -4.00 Molar
Log10LC50 (CCRF-CEM): > -4.00 Molar
Log10TGI (CCRF-CEM): > -4.00 Molar
Log10GI50 (RXF 393): > -4.00 Molar
Log10LC50 (RXF 393): > -4.00 Molar
Log10TGI (RXF 393): > -4.00 Molar
